Measurements taken from PubChem BioAssay (NCI).
Where “and” joins values, the source holds several entries; their conditions need not be identical. Equal values may be shown once.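 Five compound concentrations were applied to cells in 96-well plates for 48 hours; endpoints were derived by simple linear interpolation of the resulting dose-response curve. GI50 is the concentration that inhibits growth by half. Definition used: TGI = concentration required for complete inhibition of growth.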

Legend:
Assay in all cases: DTP human tumour cell line panel, 48 h
RXF 393 renal = test system: RXF 393 renal
RPMI-8226 leukemia = test system: RPMI-8226 leukemia
HS 578T breast = test system: HS 578T breast
MDA-MB-231 breast = test system: MDA-MB-231 breast
MALME-3M melanoma = test system: MALME-3M melanoma
HCT-116 colon = test system: HCT-116 colon
TK-10 renal = test system: TK-10 renal
NCI/ADR-RES ovarian = test system: NCI/ADR-RES ovarian
OVCAR-8 ovarian = test system: OVCAR-8 ovarian
SNB-75 CNS = test system: SNB-75 CNS

Compound	GI50 (RXF 393 renal) [nM]	TGI (RXF 393 renal)	GI50 (RPMI-8226 leukemia)	TGI (RPMI-8226 leukemia)	GI50 (HS 578T breast) [nM]	TGI (HS 578T breast) [nM]	GI50 (MDA-MB-231 breast) [nM]	TGI (MDA-MB-231 breast) [nM]	GI50 (MALME-3M melanoma)	TGI (MALME-3M melanoma)	GI50 (HCT-116 colon)	TGI (HCT-116 colon)	GI50 (TK-10 renal) [nM]	TGI (TK-10 renal) [nM]	GI50 (NCI/ADR-RES ovarian) [nM]	TGI (NCI/ADR-RES ovarian)	GI50 (OVCAR-8 ovarian) [nM]	TGI (OVCAR-8 ovarian)	GI50 (SNB-75 CNS) [nM]	TGI (SNB-75 CNS) [nM]
CCOc1ccc2c(c1)C(=O)c1c-2n(CCCN=[N+]=[N-])c(=O)c2cc([N+](=O)[O-])ccc12	28000	> 100000 nM	2250 nM	31000 nM	45900	> 100000	45000	> 100000	15400 nM	61500 nM	1820 nM	> 100000 nM	30800	> 100000	3910	> 100000 nM	11900	> 100000 nM	17300	39900
COc1ncc(-c2ccc3nccc(C#CCCCCC(=O)NO)c3c2)cc1NS(=O)(=O)c1ccc(F)cc1F	46.6	750 nM	1020 nM	4790 nM	30.7	1170	998	7850	60.4 nM	270 nM	123 nM	2800 nM	29.4	1370	3590	30000 nM	131	4080 nM	54.3	827
CC1[C@@H]2CC=C3[C@H]4CCC5Cc6nc7c(nc6C[C@@]5(C)C4CC(=O)[C@]32CO[C@]12OC(C)(C)CC2O)CC1CC[C@@H]2C3=C[C@H]4O[C@@]5(O[C@@](C)(CO)C[C@@H]5O)C(C)[C@@]4(O)[C@]3(C)[C@@H](O)CC2[C@]1(C)C7 (stereo not given in full)	0.365	0.428 nM and 4.14 nM	0.106 nM and < 0.365 nM	0.261 nM and < 0.365 nM	0.112	1.37	1.21	284	8.07 nM and 5.77 nM	145 nM and 64.8 nM	0.846 nM and 2.81 nM	83.7 nM and 532 nM	–	576	–	561 nM and > 3650 nM	–	745 nM and > 3650 nM	0.365	–
Cc1[nH]nc(C(=O)N/N=C/c2ccccc2Cl)c1N=NN(C)C	–	> 100000 nM	–	> 100000 nM	–	> 61900	–	> 100000	–	> 100000 nM	–	> 100000 nM	–	> 100000	–	> 27700 nM	–	> 100000 nM	–	> 100000
C=CC(=O)N1CCC[C@@H](n2nc(-c3ccc(Oc4ccccc4)cc3)c3c(N)ncnc32)C1	> 5250	> 10000 nM	> 7410 nM	> 10000 nM	> 10000	> 10000	9690	> 10000	> 10000 nM	> 10000 nM	> 10000 nM	> 10000 nM	40.9	3140	> 6080	> 10000 nM	> 8160	> 10000 nM	> 5600	> 10000
CC[C@@H](C)/C=C(C)/C=C/C(=O)c1c(O)c(-c2ccc(O)cc2)cn(OC2CC(=O)CCC(C)OC(=O)CC2O)c1=O (stereo not given in full)	386	17800 nM	463 nM	22900 nM	2360	> 67200	850	24300	305 nM	6800 nM	272 nM	13000 nM	442	19900	286	3030 nM	354	22800 nM	1070	19300
Cn1c(=O)c(Oc2ccc(F)cc2F)cc2cnc(NCC(C)(C)O)nc21	> 25000	> 25000 nM	> 25000 nM	> 25000 nM	> 25000	> 25000	> 25000	> 25000	> 25000 nM	> 25000 nM	> 25000 nM	> 25000 nM	> 25000	> 25000	> 25000	> 25000 nM	> 25000	> 25000 nM	> 25000	> 25000
CC[C@@]1(O)C(=O)OCc2c1cc1n(c2=O)Cc2c-1nc1cc(F)c(C)c3c1c2[C@@H](NC(=O)CO)CC3	< 10	73.1 nM	72.1 nM	1670 nM	1250	> 100000	511	> 100000	30.4 nM	1080 nM	< 10 nM	> 100000 nM	400	7430	56.4	3980 nM	13.2	> 100000 nM	< 10	133
Fc1ccc(Nc2nc3nonc3nc2Nc2ccc(I)cc2)cc1	237	817 nM	85.5 nM	2130 nM	617	13600	310	1720	93.9 nM	511 nM	240 nM	11300 nM	315	2180	272	1950 nM	312	12800 nM	263	11700
O=C(Nc1cccc(-n2cc(-c3ccncc3)c(-c3ccc(Cl)c(O)c3)n2)c1)Nc1ccc(Cl)c(Cl)c1	1000	6400 nM	1030 nM	> 32500 nM	785	3150	1180	8330	1190 nM	8100 nM	1190 nM	5730 nM	1910	> 32500	2740	> 32500 nM	1210	> 32500 nM	1090	12200
COCCn1c2c([n+](Cc3cnccn3)c1C)C(=O)c1ccccc1C2=O	15.6	128 nM	< 10 nM	< 11.4 nM	302	10700	< 10	13	126 nM	316 nM	< 10 nM	10.6 nM	35.2	222	–	> 100000 nM	< 10	< 10 nM	31.3	107
